In patent US6060310A, “Transcription factor decoy and tumor growth inhibitor” (priority 1997, dated 2000):

How the values were obtained:
[1] = tested on: CRE-directed transcription in MCF7 cells; experiment: Transient transcription assay, somatostatin Δ-71 SS-CAT reporter; format: cell-based, human; conditions: for effect on CAT activity / CRE-directed transcription: intact cells, transient transcription assay
Procedure: The CRE oligonucleotide successfully interfered with the CRE-directed transcription in intact cells. To analyze the effect of CRE oligonucleotide in CRE-directed transcription, a transient transcription assay was performed using a reporter plasmid, somatostatin Δ-71 (CPE-containing promoter)-CAT (chloramphenicol acetyltransferase) fusion gene (Montminy et al., Proc. Natl. Acad. Sci. 83, 6682 [1986]). MCF7 cells were transfected with 5 μg of somatostatin-chloramphenicol acetyltransferase fusion gene (Δ-71 SS-CAT plasmid) and 4 μg of CRE (i.e., the 24-mer described in Example 1) or control oligonucleotide by the use of transfection reagent N-[1-(2,3-Dioleoyloxy)propyl]-N,N,N-trimethylammonium methysulfate (DOTAP). After 5 hours, fresh medium was added, and the cells were harvested at 48 to 72 hours, then assayed for CAT activity. Some samples were also treated with forskolin (10 μM), an compound with adenyl cyclase activating properties (i.e., a compound that increases intracellular cAMP concentrations), for the final 24 hours. Cell lysates were prepared as described by Gorman (Gorman, High efficiency gene transfer into mammalian cells, DNA Cloning, Vol II, pp 143-165, IRL press, Oxford, England [1985]). Lysates (75 μg of protein) were incubated with 0.4 μCi of [^14 C]chloramphenicol, 0.53 mM acetyl-CoA, and 250 mM Tris-HCl, pH 7.8 for 90 minutes at 37° C. Under these conditions, CAT activity was linear with time. Reaction products were analyzed by thin-layer chromatography (Gorman, supra).

[2] = tested on: cancer cells: MCF7, LNCaP, A549, OVCAR 8, LS174T, KB, MCF7-TH, HCT-15; experiment: Cancer cell growth in vitro (cell counts); format: cell-based, human
Procedure: (§1) Cells (0.25-1×10^5 /well) were plated in a 6-well plate containing the growth medium at 37° C. The 24-mer-CRE palindrome oligonucleotide (i.e., as described in Example 1) or two-base mismatched control oligonucleotide (i.e., as described in Example 1) was added, one day after seeding, to duplicate wells at varying concentrations. To increase the delivery of oligonucleotides into the cell, transfection reagent DOTAP was added along with the oligonucleotides. Saline treated (untreated), DOTAP treated (0 concentration), CRE, or CRE control oligonucleotide treated cells were harvested after 4 days of treatment, and cell numbers were counted in duplicate by a Coulter Counter. […] In this figure, lines with closed circles represent cells treated with the 24-mer-CRE palindrome oligonucleotide, while lines with open boxes represent cells treated with the control, mismatch oligonucleotide.

[3] = tested on: normal human mammary epithelial, lung epithelial and human newborn foreskin fibroblast (HS68) cell lines; experiment: Growth of normal cell lines; format: cell-based
[4] = tested on: protein kinase A (PKA) in cultured ovarian cancer cells; experiment: PKA activity of cell extracts by column chromatography; format: cell-based; conditions: treated versus untreated ovarian cancer cells
Procedure: (§2) Cultured ovarian cancer cells were treated with and without CRE decoy oligonucleotide using the methods of Example 1 below. Extracts were analyzed by column chromatography for PKA activity.

[5] = tested on: CRE-protein complex (CRE DNA-binding proteins such as 43 kDa CREB); experiment: Mobility shift assay of CRE DNA-protein complex formation in nuclear extracts of treated cells; format: cell-based, human; conditions: cells treated 150 nM for 2 days; MCF7, MCF10A and LNCaP; versus saline treated cells
Procedure: Cells were treated with saline (i.e., control cells), the CRE 24-mer (150 nM for 2 days), or a control oligonucleotide and nuclear extracts were prepared using the method of Dignam (Dignam et al., Nucleic Acid Res. 11, 1475 [1983]). The control oligonucleotide was 5'-[…]-3' (SEQ ID NO: 8), which is a copy of the CRE 24-mer with two mismatched bases included in each consensus sequence motif (i.e., it will not bind as well to transcription factors as will the consensus sequence oligonucleotide). Nuclear extracts were obtained from the cells and were analyzed by a mobility shift assay to compare the amount of CRE-protein bound complex between treated, untreated, and control samples. The DNA binding assay was performed by a method modified from that of Fried and Crothers (Fried and Crothers, Nucleic Acid Res. 9, 6506 [1981]). Briefly, nuclear extracts (10 μg protein) were pre-incubated with poly(dI-dC).cndot. poly (dI-dC) (1 μg), DTT (0.3 mM), and binding buffer (12 mM Tris pH 7.9, 2 mM MgCI2, 60 mM KCl, 0.12 mM EDTA, and 12% glycerol) with or without antiserum (2-4 μl) for 30 min at 4° C. ^32 P-labeled oligonucleotide (double-stranded CRE triplet, 5'-[…]-3'; SEQ ID NO:12) was then added and the reaction mixtures were incubated for 10 min at 37° C. The reaction mixtures were then separated on a 4% polyacrylamide gel at 200 V for 1.5 hours. The gel was dried and autoradiographed. […]

[6] = tested on: HCT-15 human MDR colon carcinoma; experiment: Tumor growth in vivo, HCT-15 xenograft; parameters: species or system athymic mice; conditions: 5x/week, 4 weeks
Procedure: HCT-15 human MDR colon carcinoma tumor cells (2×10^6 cells) were inoculated subcutaneously into the left flank of athymic mice. The CRE or control oligonucleotide was injected intraperitoneally into mice at 0.01-0.1 mg/0.1 ml saline/mouse, daily, 5×/week for 4 weeks, when tumor size reached 30-50 mg ~10 days after cell inoculation. Tumor volumes were obtained from daily measurements of the longest and shortest diameters and calculated by the formula, 4/3πr^3 where r=(length+width)/4.

OVCAR8 cells = experiment: Cell and nuclear morphology (Giemsa, Hoechst 33258), apoptosis; format: cell-based, human; conditions: OVCAR 8
Source text: After staining, the whole cells were visualized under an inverted microscope at ×240. […] The nuclear morphology of cells was visualized by a fluorescence microscope (Olympus BH2) at ×2600.

[7] = tested on: bcl-2 protein in MCF-10A cells; experiment: Bcl-2 protein level by western blot; format: cell-based, human; conditions: MCF-10A normal cells
Procedure: (§3) Bcl-2 protein levels were measured by standard western blotting techniques known in the art using Anti-bcl-2 antibody.

[8] = tested on: bcl-2 protein in MCF7 cells; experiment: Bcl-2 protein level by western blot; format: cell-based, human; conditions: 150 nM, 4 days
Procedure: as §3

[9] = Cellular uptake of 32P-labeled oligonucleotide; format: in vitro ADME, human
Procedure: To examine the efficacy of cellular incorporation of the CRE oligonucleotides, we incubated ^32 P-labeled samples of CRE-palindromeoligonucleotide and control oligonucleotide with MCF7 and MCF10A cells. Cell-associated radioactivity was quantified. Within 5 hrs, about 10% of the total input oligonucleotide accumulated in the cell and the incorporation continued to rise thereafter reaching 20-25% maximum levels at 24 hr of oligonucleotide incubation. The amounts and the rates of the incorporation of oligonucleotide were similar between MCF7 and MCF10A cells and between the CRE-decoy oligonucleotide and control oligonucleotide.

[10] = tested on: normal cells MCF-10A and L-132; experiment: Normal cell growth in vitro (cell counts); format: cell-based, human; conditions: MCF-10A and L-132, 4 days of treatment
Procedure: as §1

[11] = tested on: protein kinase A (PKA) in HS68 cells; experiment: PKA activity of cell extracts by column chromatography; format: cell-based, human; conditions: treated versus untreated HS68 cells
Procedure: as §2

[12] = summary in description, concentration not given

Row | Substance | effect on CAT activity / CRE-directed transcription [1] | growth inhibition ([2]; 150 nM, separate experiments) | growth inhibition [2, 12] | formation of the CRE-protein complex [5] | changes in cell morphology and apoptotic nuclei (OVCAR8 cells) | bcl-2 level [7] | bcl-2 level [8] | also measured
1 | 5'-GCTGACGTCGGCCTGACGTCAGC-3' (chemistry not given here) [SEQ ID NO:3, non-palindromic hairpin forming CRE oligonucleotide] | interfered with CRE-directed transcription | – | – | – | – | – | – | –
2 | 5'-TGACGGCATGACGGCATGACGGCA-3' (chemistry not given here) | – | 30% | 30% | – | – | – | – | –
3 | 5'-TGACGTCA TGACGTCA TGACGTCA-3' (TGACGTCATGACGTCATGACGTCA; chemistry not given here) [24-mer CRE oligonucleotide, transcription factor decoy] | – | – | – | marked decrease | appearance of apoptotic nuclei | did not alter | markedly reduced | growth of normal cell lines [3]: not affected; PKA activity peaks (Type-1 and Type-2) [4]: no peaks; toxicity ([6]; 0.01 or 0.1 mg/mouse i.p. daily): without causing toxicity; inhibition of tumor growth ([6]; 0.01 or 0.1 mg/mouse i.p. daily, versus saline treated tumors): greater than 85%; IC50 ([2]; 4 days of treatment, with DOTAP, read-out: IC50, growth inhibition of cancer cells): 100 to 150 nM; maximum level of oligonucleotide incorporation ([9]; 24 hr of incubation): 20-25%; total input oligonucleotide accumulated in the cell ([9]; within 5 hrs): about 10%; inhibition of the CRE-directed transcription ([1]; 4 μg oligonucleotide with 5 μg Δ-71 SS-CAT, DOTAP, versus Δ-71 CAT alone): greater than 90%; growth of normal cells [10]: unaffected; PKA activity [11]: did not show any differences
4 | 5'-TGCCGTCATGCCGTCATGCCGTCA-3' (chemistry not given here) [24-mer CRE-hairpin sense oligonucleotide] | strongly inhibited | 70% | 70-80% | – | – | – | – | effect on CAT activity / CRE-directed transcription ([1]; listed as SEQ ID NO:10): strong inhibition
5 | 5'-TGTGGTCATGTGGTCATGTGGTCA-3' (DNA, backbone and methylation of C not given here) [reference compound] | no inhibitory effect | – | – | same or similar intensity band | not observed | no effect | no effect | tumor growth inhibitory effect ([6]; i.p. daily): no growth inhibitory effect; growth inhibitory effect ([2]; 4 days of treatment, with DOTAP): no growth inhibitory effect
6 | 24-mer CRE-hairpin sense and antisense oligonucleotides in combination: two complementary hairpin-forming oligonucleotides combined, producing a cruciform structure (sense TGCCGTCATGCCGTCATGCCGTCA; antisense TGACGGCATGACGGCATGACGGCA; two hairpin-forming strands combined into cruciform structure, further chemistry not given here) | – | over 80% | over 80% | – | – | – | – | –
